Our source for the ED50 values is ChEMBL document CHEMBL1154386, “Synthesis, characterization and in vitro evaluation of new oxorhenium- and oxotechnetium-CCK4 derivatives as molecular imaging agents for CCK2-receptor targeting” (Eur J Med Chem, 2010).

Molecules are shown by their SMILES. Starred links: 1 amine or outer side, 2 acyl side, 3 side chain; linkers in the order of their positions; H or OH if unused. Non-standard residues stand in square brackets, D forms with d. Residues, ends and D or L forms follow the SMILES beside them. *: point of attachment. Acetyl(2-STrt) = O=C(CSC(c1ccccc1)(c1ccccc1)c1ccccc1)*; X1 = Oc1ccc(NC(=S)[*:2])cc1N[*:1]; Nle = CCCC[C@H](N)C(=O)O; Ahx = NCCCCCC(=O)O; βAla = NCCC(=O)O

For the assay, the target named is T1, Gastrin/cholecystokinin type B receptor (Homo sapiens) (UniProt P32239).
T1 sequence (whole entry): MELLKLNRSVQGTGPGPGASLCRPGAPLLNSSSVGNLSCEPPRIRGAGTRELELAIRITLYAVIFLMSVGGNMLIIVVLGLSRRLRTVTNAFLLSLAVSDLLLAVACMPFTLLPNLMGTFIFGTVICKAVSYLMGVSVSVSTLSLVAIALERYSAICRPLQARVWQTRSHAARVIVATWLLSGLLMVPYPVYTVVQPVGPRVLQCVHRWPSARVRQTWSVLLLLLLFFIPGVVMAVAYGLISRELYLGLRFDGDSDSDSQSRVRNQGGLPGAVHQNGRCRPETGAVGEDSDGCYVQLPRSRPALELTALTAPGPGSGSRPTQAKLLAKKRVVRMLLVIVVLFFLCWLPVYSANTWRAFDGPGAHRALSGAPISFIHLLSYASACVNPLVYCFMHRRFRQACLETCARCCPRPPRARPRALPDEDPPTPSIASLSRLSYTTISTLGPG
Briefly: Agonist activity at human CCK2 receptor expressed in COS7 cells assessed as stimulation of [3H]inositol phosphate formation. The assay is classed as functional, cell-based. Conditions: COS-7.
Regarding `CCCC[C@H](NC(=O)[C@H](Cc1c[nH]c2ccccc12)NC(=S)Nc1ccc(O)c(NC(=O)CNC(=O)CSC(c2ccccc2)(c2ccccc2)c2ccccc2)c1)C(=O)N[C@@H](CC(=O)O)C(=O)N[C@@H](Cc1ccccc1)C(=O)O` ({Acetyl(2-STrt)}-G[X1]W[Nle]DF-OH), the ED50 stood at 84.5 nM.

With `CCCC[C@H](NC(=O)[C@H](Cc1c[nH]c2ccccc12)NC(=O)CCNC(=O)CCNC(=S)Nc1ccc(O)c(NC(=O)CNC(=O)CSC(c2ccccc2)(c2ccccc2)c2ccccc2)c1)C(=O)N[C@@H](CC(=O)O)C(=O)N[C@@H](Cc1ccccc1)C(N)=O` ({Acetyl(2-STrt)}-G[X1][βAla][βAla]W[Nle]DF-NH2), the ED50 was 3.1 nM.

Consider `CCCC[C@H](NC(=O)[C@H](Cc1c[nH]c2ccccc12)NC(=O)CCCCCNC(=O)CCCCCNC(=S)Nc1ccc(O)c(NC(=O)CNC(=O)CSC(c2ccccc2)(c2ccccc2)c2ccccc2)c1)C(=O)N[C@@H](CC(=O)O)C(=O)N[C@@H](Cc1ccccc1)C(N)=O` ({Acetyl(2-STrt)}-G[X1][Ahx][Ahx]W[Nle]DF-NH2), for which the ED50 is 5.01 nM.
